Values quoted from earlier work as cited in US20030083360A1, “Compaction process for manufacture of sodium phenytoin dosage form” (priority 2001, published 2003).
Where two headings read alike, the source gives them in different places.

solubility in water (listed as free-phenytoin)	Compound	solubility in water
practically insoluble in water	O=C1NC(=O)C(c2ccccc2)(c2ccccc2)N1 [phenytoin, 5,5-diphenyl-2,4-imidazolidinedione]	poor solubility in water
	O=C1N=C([O-])NC1(c1ccccc1)c1ccccc1.[Na+] [sodium phenytoin]	much more soluble
